By IC50 is commonly meant the concentration at which inhibition is half-maximal.

Some results are limits rather than exact numbers.

The target of assay [1] is Perforin-1 (Mus musculus) (UniProt P10820). Kind of assay: Inhibition of recombinant Perforin-1 (mouse).
Assay [2] shares this target. Nature of the assay: Inhibition of Perforin-1 in human Jurkat cells.

Sequence of Perforin-1 (Mus musculus) (P10820 whole entry, looked up): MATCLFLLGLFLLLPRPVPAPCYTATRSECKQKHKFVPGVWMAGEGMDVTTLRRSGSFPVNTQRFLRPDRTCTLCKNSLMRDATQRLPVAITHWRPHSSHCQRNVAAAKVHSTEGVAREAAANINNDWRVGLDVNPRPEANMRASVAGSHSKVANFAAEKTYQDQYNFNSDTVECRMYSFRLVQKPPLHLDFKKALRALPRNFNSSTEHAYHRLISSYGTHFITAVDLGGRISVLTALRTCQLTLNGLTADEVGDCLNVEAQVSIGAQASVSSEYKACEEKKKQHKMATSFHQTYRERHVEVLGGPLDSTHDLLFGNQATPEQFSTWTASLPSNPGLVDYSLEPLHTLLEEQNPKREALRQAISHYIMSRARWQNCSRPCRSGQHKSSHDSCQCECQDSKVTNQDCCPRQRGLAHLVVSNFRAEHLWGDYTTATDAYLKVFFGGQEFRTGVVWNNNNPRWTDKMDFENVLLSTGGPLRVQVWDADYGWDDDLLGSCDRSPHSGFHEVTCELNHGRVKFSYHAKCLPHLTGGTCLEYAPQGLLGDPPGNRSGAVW

For the compound `CN1CCc2cc(-c3ccc(-c4cncc(NS(=O)(=O)c5ccc(F)cc5F)c4)s3)ccc2C1=O`, the IC50 in assay [1] is more than 20 µM. With `Cc1cc2c(c(=S)[nH]1)C(=O)O/C2=C\c1ccc(C)o1`, in assay [2], 2.7 µM corresponded to half-maximal inhibition (IC50). `O=C1NCCc2cc(-c3ccc(-c4cncc(NS(=O)(=O)c5ccc(F)cc5F)c4)s3)ccc21`: in assay [1], the IC50 was more than 20 µM. Still for that read-out and setting: in the case of `O=C1NCCc2ccc(-c3ccc(-c4cncc(NS(=O)(=O)c5ccc(F)cc5F)c4)s3)cc21` it was more than 20 µM. On the same count and under the same terms, in the case of `Cc1ccc2c(c1)C(c1ccc(-c3cncc(NS(=O)(=O)c4ccc(F)cc4F)c3)s1)N(C)C2=O` (stereo not given) it was more than 20 µM.

Source of the values: ChEMBL document CHEMBL5150022, “Small Molecule Inhibitors of Lymphocyte Perforin as Focused Immunosuppressants for Infection and Autoimmunity” (J Med Chem, 2022).
